Read-outs that look alike come from different tables or passages of the source.
Legend:
[1] = system: 3T3-L1 cells; assay: Fluorescent fatty acid uptake by 3T3-L1 cells, 96-well format; format: cell-based; details: for Uptake by 3T3-L1 cells, Day 9 / Uptake by 3T3-L1 cells, Day 0: 10 μM dye, one hour, means ± SEM; for Uptake by 3T3-L1 cells, Day 9: cells 9 days in differentiation medium; for Uptake by 3T3-L1 cells, Day 0: cells not incubated in differentiation medium; for Fatty acid uptake, Fluor. Units: dye 120 minutes
Description: To establish a rapid, 96 well format, automated assay of fatty acid uptake, the reproducibility and signal-to-noise ratios of four different fatty acid-fluorescent dye conjugates in undifferentiated and differentiated preadipocytes was determined. 3T3-L1 cells were used to compare the fluorescent dyes, the best of which was then selected for the human preadipocyte system. The fluorescent fatty acids tested were
These fatty acid-dye conjugates were chosen because their final size is close to that of physiologically relevant C:18 fatty acids, the most abundant in human fat cells and in the diet (Kokatnur, M., et al.(1979) Am. J. Clin. Nutr. 32:2198-205; Llado, I., et al. (1996) Biochem. Mol. Biol. Int. 40:295-303)). Furthermore, these dyes are vital, allowing the cells to be re-used in additional assays. 3T3-L1 cells were seeded in the wells of a 96-well plate at a density of 3.3×10^3 cells/cm^2 (1×10^3 cells/well). After reaching confluence, cells were exposed to differentiation medium for 0 and 9 days. The wells were washed with assay buffer (150 mM […], 10 mM NaPO4; 3 mM KCl; 10 μM CaCl2; 1 mM MgCl2; 25 mM glucose; pH 7.4) containing 20 μM fatty acid-free BSA, pre-warmed to 37° C. The fluorescent fatty acids were added in assay buffer to a final concentration of 10 μM, and incubated at 37° C. for one hour. Wells were washed with assay buffer containing 0.1% BSA.
Table 15 indicates the results of experiments in which 3T3-L1 cells were exposed to a differentiation inducing medium from day 0. Fatty acid uptake was assayed by exposing cells to BODPY for 120 minutes at each of the times represented.

[2] = system: 3T3-L1 cells; assay: as above; format: cell-based; details: for BODIPY uptake, Day 0 / BODIPY uptake, Day 8: 10 μM
[3] = system: human preadipocytes; assay: Fatty acid uptake by human preadipocytes exposed to differentiation medium (fatty acid-based cellulomic assay); format: cell-based; details: 10 d, relative to control medium, means of 4 studies
Description: The following example describes the optimization of methods used to differentiate human preadipocytes. The example details a thorough analyses of known and potential agents and conditions for promoting human preadipocyte differentiation. Experiments were performed with abdominal subcutaneous as well as mesenteric and omental preadipocytes. A variety of conditions were tested using the fatty acid-based cellulomic assay described in Example 4. Optimization of differentiation conditions enhances the usefulness of human preadipocytes in screening for modulators (e.g., inhibitors) of obesity.
(§1) The fatty acid uptake ratio was expressed as a function of fatty acid uptake in control medium. % Diff. represents the proportion of cells that developed doubly refractile lipid droplets visible by phase contrast microscopy by observers unaware of culture conditions. Means of 4 studies are shown. CoV was also determined (not shown) to monitor assay reliability.

[4] = system: human preadipocytes; assay: Extent of differentiation: % cells with doubly refractile lipid droplets by phase contrast microscopy; format: cell-based; details: 10 d
Description: as §1

[5] = system: human subcutaneous adipocytes; details: positive control
Description: (§2) Cells are 10 thawed in PM and grown in tissue culture flasks under standard incubation conditions (5% carbon dioxide, 37° C.). Cells are passaged 1:2 upon 80-100% confluency. Cells are passaged up to ten times to produce enough cells for primary screening. • C. Cells are seeded and differentiated, as described in the previous section, in 384-well plates. • D. On day 6 of preadipocyte differentiation, the DM is first changed as described in the previous section. Cells are then incubated in a replicate manner (i.e., in triplicate) with compounds. […] Compounds are further diluted in a PBS or similarly buffered solution in the absence or presence of albumin to aid compound solubility. […] Positive control cells are treated with a compound or reagent known to modulate their ability to take up and/or accumulate fatty acids. […] The FA* currently used is 4,4-difluoro-5-methyl-4-bora-3a,4a-diaza-s-indacene-3-dodecanoic acid (C1-BODIPY® 500/510 C12, catalog # D-3823, Molecular Probes, Eugene, Oreg.). […] Cells are incubated for four hours at 5% carbon dioxide/37° C., then post-washed with FAB, preferably three times, to remove unincorporated FA*. Cellular fluorescence of triglyceride droplets that have incorporated FA* is measured on a microplate reader. Efficacy of compounds on inhibiting FA* accumulation is determined by: % Efficacy=100−(sample fluorescence/negative control fluorescence×100). • H. Subsequent determination of compound toxicity on cells is measured by incubating cells (after the post-wash and FA* reading) with an aliquot of Alamar Blue (catalog # DAL-1100, BioSource International), a fluorescent dye that is reduced via cellular metabolism. After incubation of cells with the dye for up to four hours, fluorescence of the reduced compound is read. Alternatively, compound toxicity on cells can be determined in an experiment separate from the primary screen uptake/accumulation assay. Toxicity of compounds is determined by: % Toxicity =100−(sample fluorescence/negative control fluorescence×100).
(§3) Primary screens for inhibition of fatty acid uptake are carried out using human subcutaneous preadipocytes in each of two assay formats. In a first assay format, cells are exposed to natural product and synthetic library components early in the differentiation process (days 1-3 following addition of differentiation medium). In a second assay format, cells are exposed to library components late in the process (days 7-10 following addition of differentiation medium), after at least 80% of cells have differentiated.
(§4) Subcutaneous human preadipocytes (passage 3-5) are seeded in plating medium at 3.0×10^4 cells/cm^2 in 96-well or 384-well plates, giving 100% confluence upon adherence. […]

[6] = system: differentiating adipocytes
Description: The assay features differentiated human preadipocytes, but the procedure can be modified in a number of ways to discover novel compounds affecting the adipocytes of human and other species (i.e., rodent). For example, the day of compound addition during preadipocyte differentiation process can be changed as well as the incubation period. Similarly, the day of FA* addition, its type of fluorescent label and chain length, and its concentration and incubation time can be modified. • B. Up to five cell strains of frozen primary human subcutaneous preadipocytes (e.g., subcutaneous preadipocytes) are used, but this number can be increased as needed. Omental and mesenteric preadipocytes can be used in a similar manner. Cells are 10 thawed in PM and grown in tissue culture flasks under standard incubation conditions (5% carbon dioxide, 37° C.). Cells are passaged 1:2 upon 80-100% confluency. Cells are passaged up to ten times to produce enough cells for primary screening. • C. […] Cellular fluorescence of triglyceride droplets that have incorporated FA* is measured on a microplate reader. Efficacy of compounds on inhibiting FA* accumulation is determined by: % Efficacy=100−(sample fluorescence/negative control fluorescence×100). • H. Subsequent determination of compound toxicity on cells is measured by incubating cells (after the post-wash and FA* reading) with an aliquot of Alamar Blue (catalog # DAL-1100, BioSource International), a fluorescent dye that is reduced via cellular metabolism. After incubation of cells with the dye for up to four hours, fluorescence of the reduced compound is read. Alternatively, compound toxicity on cells can be determined in an experiment separate from the primary screen uptake/accumulation assay. Toxicity of compounds is determined by: % Toxicity =100−(sample fluorescence/negative control fluorescence×100).
Subsequent determination of compound toxicity is measured by incubating cells with one tenth of total cell volume of Alamar Blue (an indicator of cellular metabolism) for up to four hours before measuring fluorescence of the reduced compound. […]

[7] = system: human subcutaneous adipocytes; assay: cells; details: Adipocyte, read-out: % Efficacy (inhibition of FA* accumulation)
Description: as §2, §3, §4

[8] = Dex 10^−4 M in suboptimal differentiation medium
[9] = Dex 10^−7 M in suboptimal differentiation medium
[10] = Dex 10^−10 M in suboptimal differentiation medium

SMILES: CCCCCCC(C/C=C\CCCCCCCC(=O)O)OC(=O)c1c2ccccc2cc2ccccc12 (stereo not drawn) [12-AO, 12-(9-anthroyloxy) oleic acid]
- Uptake by 3T3-L1 cells, Day 9 [1]: 10960 ± 1172 Raw Fluorescent Units
- Uptake by 3T3-L1 cells, Day 0 [1]: 3613 ± 160 Raw Fluorescent Units

SMILES: O=C(O)CCCCCCCCCCCCCCCOC(=O)c1c2ccccc2cc2ccccc12 [16-AP, 16-(9-anthroyloxy) palmitic acid]
- Uptake by 3T3-L1 cells, Day 9 [1]: 8528 ± 20 Raw Fluorescent Units
- Uptake by 3T3-L1 cells, Day 0 [1]: 2944 ± 404 Raw Fluorescent Units

SMILES: CC1=[N+]2C(=Cc3ccc(CCCCCCCCCCCC(=O)O)n3[B-]2(F)F)C=C1 [BODIPY 500/510 C12, 4,4-difluoro-5-methyl-4-bora-3a,4a-diaza-s-indacene-3-dodecanoic acid]
- BODIPY uptake, Day 0 ([2]; incubation 10 min): 1290.263 rfu
- BODIPY uptake, Day 8 ([2]; incubation 10 min): 1198.325 rfu
- BODIPY uptake, Day 0 ([2]; incubation 30 min): 510.3125 rfu
- BODIPY uptake, Day 8 ([2]; incubation 30 min): 18518.67 rfu
- BODIPY uptake, Day 0 ([2]; incubation 120 min): 686.9375 rfu
- BODIPY uptake, Day 8 ([2]; incubation 120 min): 46363 rfu
- BODIPY uptake, Day 0 ([2]; incubation 240 min): 1104.125 rfu
- BODIPY uptake, Day 8 ([2]; incubation 240 min): 49153.33 rfu
- Fatty acid uptake, Fluor. Units ([2]; Day 8 in differentiation inducing medium, dye 120 minutes): 18685 Fluor. Units
- Uptake by 3T3-L1 cells, Day 9 [1]: 56869 ± 2093 Raw Fluorescent Units
- Uptake by 3T3-L1 cells, Day 0 [1]: 404 ± 21 Raw Fluorescent Units
- Fatty acid uptake, Fluor. Units ([1]; Day 0 in differentiation inducing medium): 1166.67 Fluor. Units
- Fatty acid uptake, Fluor. Units ([1]; Day 2 in differentiation inducing medium): 5006.75 Fluor. Units
- Fatty acid uptake, Fluor. Units ([1]; Day 4 in differentiation inducing medium): 10884.5 Fluor. Units
- Fatty acid uptake, Fluor. Units ([1]; Day 6 in differentiation inducing medium): 15441.8 Fluor. Units
- Fatty acid uptake, Fluor. Units ([1]; Day 10 in differentiation inducing medium): 31645.8 Fluor. Units
- Fatty acid uptake, Fluor. Units ([1]; Day 12 in differentiation inducing medium): 37910 Fluor. Units

SMILES: O=C([O-])CCCCCCCCCCCc1ccc2n1[B-](F)(F)[N+]1=C(c3cccs3)C=CC1=C2.[H+] [BODIPY 558/568 C12, 4,4-difluoro-5-(2-thienyl) 1-4-bora-3a,4a-diaza-s-indacene-3-dodecanoic acid]
- Uptake by 3T3-L1 cells, Day 9 [1]: 3622 ± 641 Raw Fluorescent Units
- Uptake by 3T3-L1 cells, Day 0 [1]: 116 ± 9 Raw Fluorescent Units

SMILES: C[C@@H]1C[C@H]2[C@@H]3CCC4=CC(=O)C=C[C@]4(C)[C@@]3(F)[C@@H](O)C[C@]2(C)[C@@]1(O)C(=O)CO [Dex, dexamethasone]
- Uptake Ratio [3, 8]: 5
- Uptake Ratio [3, 9]: 79
- Uptake Ratio [3, 10]: 49
- % Diff. [4, 8]: 30%
- % Diff. [4, 9]: 70%
- % Diff. [4, 10]: 60%

SMILES: N#CC(C#N)=NNc1ccc(OC(F)(F)F)cc1 [FCCP, carbonyl cyanide p-(trifluoromethoxy)-phenylhydrazone]
- FA* uptake and/or accumulation [5]: inhibits FA* uptake and/or accumulation in a dose-responsive manner
- % Toxicity ([6]; 0.3 μM): −1%
- % Toxicity ([6]; 1 μM): −4%
- % Toxicity ([6]; 3 μM): 5%
- Emax at 0.3 µM [7]: 42%
- Emax at 1 µM [7]: 79%
- Emax at 3 µM [7]: 90%

From US20050233403A1, “Human adipocyte cell populations and methods for identifying modulators of same” (AdipoGenix, Inc., priority 2002, published 2005)
